# Data published in US7612071B2, “Compositions and methods employing aminopterin” (Syntrix Biosystems, Inc., priority 2004, dated 2009).
# Read-outs that look alike come from different tables or passages of the source.
# Legend:
# [1] = Storage of aqueous compositions; assay type: physicochemical; settings: parenteral, oral liquid or other aqueous compositions
# From the text: Because of their ease of administration, tablets and capsules represent the most advantageous oral dosage form in adults, in which case solid pharmaceutical carriers are employed. If desired, tablets may be coated by standard aqueous or nonaqueous techniques. The parenteral dosage form can consist of a sterile solution of the active ingredient, either in its free or salt form, in physiological buffer or sterile water. In addition, parenteral solutions can contain preservatives such as benzalkonium chloride, methyl- or propyl-paraben and chlorobutanol. Suitable pharmaceutical carriers are described in Remington's Pharmaceutical Sciences, a standard reference text in this field. […] Accordingly, such aqueous compositions are best stored desiccated and hydrated within several hours to several days prior to patient administration.
# [2] = Interpatient coefficient of variation of oral bioavailability; assay type: in vivo; settings: human, plasma, 2 mg/m2; AMT 2 mg/m^2 PO, pediatric and adult patients, n=27
# Experimental: The term “interpatient coefficient of variation of oral bioavailability” as used herein refers to the coefficient of variation of oral bioavailability in a population of at least two patients, wherein the oral bioavailability is determined at least once for each patient in the population. Specifically, it is the standard deviation of oral bioavailability in the population divided by the interpatient oral bioavailability, expressed as a percent. […] It is sufficient to use a representative number of patients from a particular patient population to establish the interpatient coefficient of variation of oral bioavailability for that population, where at least 5 patients will be required in order to establish the interpatient coefficient of variation of oral bioavailability of a population.
# The standard deviation of oral bioavailability and interpatient oral bioavailability were determined among 27 matched patients.
# Pharmacol. 10(1):36, 1982].
# [3] = Interpatient oral bioavailability in patients (oral vs intravenous AUC, matched); assay type: in vivo; settings: human, plasma
# Experimental: The term “interpatient oral bioavailability” as used herein refers to the mean oral bioavailability in a population of at least two patients, wherein the oral bioavailability is determined at least once for each patient in the population. The interpatient oral bioavailability may be calculated by dividing the mean population AUC after oral dosing by the mean population AUC after intravenous dosing, wherein the oral and intravenous doses are identical, and expressing the ratio as a percent. In a preferred method, the interpatient oral bioavailability is calculated using matched samples by averaging the oral bioavailabilities obtained for each patient. More specifically, the oral bioavailability is obtained for each patient by dividing the AUC after oral dosing the patient by the AUC after intravenous dosing the same patient with the same dose of antifolate (i.e. the oral and intravenous AUC in each patient are matched and the patients are said to be matched). The interpatient oral bioavailability based on these matched patients is then simply the mean population oral bioavailability expressed as a percent. […] It is sufficient to use a representative number of patients from a particular patient population to establish an interpatient oral bioavailability for that population, where at least 5 patients will be required in order to establish an interpatient oral bioavailability of a population.
# The term “oral bioavailability” as used herein refers to the fraction of an antifolate dose given orally that is absorbed into the plasma after a single administration to a patient. A preferred method for determining the oral bioavailability is by dividing the AUC of an antifolate dose given orally by the AUC of the same antifolate dose given intravenously to the same patient, and expressing the ratio as a percent. […]
# [4] = Potency relative to methotrexate; settings: therapeutically effective amount for the same level of efficacy
# [5] = prior art; cited from earlier work
# [6] = tested on: standard and high-risk ALL; settings: for Coefficient of variation of toxicity of aminopterin as percent of that of methotrexate: both oral; for Therapeutic Component: Percentage effective (no evidence of a disease manifestation): greater than 12 months treatment, AMT 4 mg/m^2/wk high risk ALL (n=20), MTX 100 mg/m^2/wk standard risk ALL (n=20)
# [7] = target: T1, partially purified chicken liver DHFR (Gallus gallus, UniProt P00378); test: Radioligand DHFR binding assay; settings: aminopterin compared with methotrexate
# T1 sequence (P00378 1-189): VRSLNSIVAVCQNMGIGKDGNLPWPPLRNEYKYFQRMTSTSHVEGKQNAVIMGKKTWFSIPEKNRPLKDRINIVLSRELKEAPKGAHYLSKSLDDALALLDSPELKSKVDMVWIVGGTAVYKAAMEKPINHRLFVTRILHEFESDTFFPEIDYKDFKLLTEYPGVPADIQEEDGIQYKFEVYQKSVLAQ
# [8] = AMT 2 mg/m^2, adult patients, n=13, prior art; cited from earlier work
# [9] = AMT 2 mg/m^2 PO x 2 (n=75), MTX 25 mg/m^2 PO x 4 (n=41)
# [10] = AMT 2 mg/m^2 PO x 2 (n=81), MTX 25 mg/m^2 PO x 4 (n=42)
# [11] = AMT 2 mg/m^2 PO x 2 (n=104), MTX 25 mg/m^2 PO x 4 (n=63)
# [12] = AMT 2 mg/m^2 PO x 2, MTX 25 mg/m^2 PO x 4
# [13] = eAMT and eMTX (marrow exposure)
smiles,measurement,setting,value
Nc1nc(N)c2nc(CNc3ccc(C(=O)N[C@@H](CCC(=O)O)C(=O)O)cc3)cnc2n1 [AMT],stability of aqueous compositions (conversion of aminopterin to folic acid),[1],accumulate folic acid to undesirable levels over the course of six months of storage
same,Interpatient coefficient of variation of oral bioavailability,[2],42%
same,bioavailability,"[3]; 2 mg/m2, AMT 2 mg/m^2, pediatric patients (age 0-21), 15 matched patients, read-out: Interpatient oral bioavailability (%)",94%
same,bioavailability,"[3]; 2 mg/m2, AMT 2 mg/m^2, pediatric patients, n=15, read-out: Maximum (%) oral bioavailability",165%
same,bioavailability,"[3]; 2 mg/m2, AMT 2 mg/m^2, pediatric patients, n=15, read-out: Minimum (%) oral bioavailability",45%
same,potency relative to methotrexate,[4],about 25 times
same,potency relative to methotrexate,[5],at least 10 times
same,"Event-free survival (EFS) at 24-months, Kaplan Meier","[6]; 25 high risk patients receiving aminopterin, standard risk patients receiving methotrexate",93%
same,"Coefficient of variation of toxicity, absolute neutrophil count in consolidation",[6]; [9],80%
same,Mean absolute neutrophil count in consolidation,[6]; [9],1667 cells/μL
same,"Coefficient of variation of toxicity, platelet counts in consolidation",[6]; [10],58%
same,Mean platelet counts in consolidation,[6]; [10],316 cells × 10^3/μL
same,"Coefficient of variation of toxicity, level of liver enzymes above normal",[6]; [11],25%
same,Mean level of liver enzymes above normal,[6]; [11],188 IU/L ALT
same,"Coefficient of variation of toxicity, level of liver enzymes above normal","[6]; AMT 2 mg/m^2 PO x 2 (n=104), MTX 25 mg/m^2 PO x 4 (n=63), listed as aminopterin",25%
same,"Coefficient of variation Relative To The Invention, absolute neutrophil count in consolidation",[6]; [12],1.0
same,"Coefficient of variation Relative To The Invention, level of liver enzymes above normal",[6]; [12],1.0
same,"Coefficient of variation Relative To The Invention, platelet counts in consolidation",[6]; [12],1.0
same,Patients with severe hepatotoxicity (liver enzyme elevations greater than five times normal),"[6]; AMT 4 mg/m^2/wk (n=104), MTX 100 mg/m^2/wk (n=63)",5.8%
same,Therapeutic Component: Antifolate dose,"[6]; AMT high risk ALL (n=20), MTX standard risk ALL (n=20), Table V",4 mg/m^2/wk:
same,Therapeutic Component: Antifolate dose with same efficacy as MTX at 100 mg/m^2/wk,"[6]; AMT high risk ALL (n=20), MTX standard risk ALL (n=20), Table VI",4 mg/m^2/wk
same,Therapeutic Index,[6]; Any elevation of liver enzymes,1
same,Toxicity Component: Antifolate dose with same toxicity as MTX at 100 mg/m^2/wk,[6]; Any elevation of liver enzymes,4 mg/m^2/wk
same,Therapeutic Index,[6]; Elevations in liver enzymes >5 times normal,1
same,Toxicity Component: Antifolate dose causing 5.8% of the population to have the toxicity,[6]; Elevations in liver enzymes >5 times normal (severe hepatotoxicity),4 mg/m^2/wk
same,Therapeutic Index,[6]; Hospital admissions,1
same,Toxicity Component: Antifolate dose with same toxicity as MTX at 100 mg/m^2/wk,[6]; Hospital admissions,4 mg/m^2/wk
same,Therapeutic Index,[6]; Mucositis,1
same,Toxicity Component: Antifolate dose with same toxicity as MTX at 100 mg/m^2/wk,[6]; Mucositis,4 mg/m^2/wk
same,Therapeutic Index,[6]; Myelosuppression,1
same,Toxicity Component: Antifolate dose with same toxicity as MTX at 100 mg/m^2/wk,[6]; Myelosuppression,4 mg/m^2/wk
same,Therapeutic Index,[6]; Neutropenia,1
same,Toxicity Component: Antifolate dose with same toxicity as MTX at 100 mg/m^2/wk,[6]; Neutropenia,4 mg/m^2/wk
same,Therapeutic Index,[6]; Thrombocytopenia,1
same,Toxicity Component: Antifolate dose with same toxicity as MTX at 100 mg/m^2/wk,[6]; Thrombocytopenia,4 mg/m^2/wk
same,Therapeutic Index,[6]; Treatment interruptions,1
same,Toxicity Component: Antifolate dose with same toxicity as MTX at 100 mg/m^2/wk,[6]; Treatment interruptions,4 mg/m^2/wk
same,Therapeutic Index,[6]; [13],1
same,Toxicity Component: Antifolate dose with same toxicity as MTX at 100 mg/m^2/wk,[6]; [13],4 mg/m^2/wk
same,Coefficient of variation of toxicity of aminopterin as percent of that of methotrexate,"[6]; elevated liver enzymes, 2 mg/m^2 aminopterin vs 25 mg/m^2 methotrexate",71%
same,Coefficient of variation of toxicity of aminopterin as percent of that of methotrexate,"[6]; erythrocyte antifolate levels, 2 mg/m^2 aminopterin vs 20 mg/m^2 methotrexate",12.4%
same,Survival rate of high risk patients vs standard risk patients treated with equipotent methotrexate,"[6]; follow-up period of up to 15 months, 20 patients per arm",equivalent survival rate
same,Therapeutic Component: Percentage effective (no evidence of a disease manifestation),[6],100% effective at
same,Therapeutic Component: Percentage effective (no evidence of a disease manifestation),[6]; listed as aminopterin,100%
same,displacement of tritiated methotrexate and binding to DHFR,[7],equivalent
same,Interpatient oral bioavailability (%),[8],85%
same,Maximum (%) oral bioavailability,[8],163%
same,Minimum (%) oral bioavailability,[8],32%
